Data on 11 molecules can be found in US10017481B2, “Conformationally constrained, fully synthetic macrocyclic compounds” (POLYPHOR AG, priority 2012, dated 2018).

What all share (type): in vitro ADME
The nature of data set [1]: Plasma stability assay, human plasma. As to conditions: for Plasma Stability 240 min hum [% remain.]: human plasma, 10 μM, 37° C.; for half-life at 10 μM: human, plasma. The protocol: (§1) 5. Plasma and Metabolic Stability Assays Example compounds were dissolved in DMSO/H2O 90:10 to a final concentration of 10 mM for plasma stability determination and metabolic stability determination. The assays were conducted according to literature precedents (F. P. Guengerich, Analysis and Characterization of Enzymes; in: Principles and Methods of Toxicology, A. W. Hayes (Ed.) Raven Press: New York, 1989, 777-813; R. Singh et al., In vitro metabolism of a potent HIV-protease inhibitor (141W94) using rat, monkey and human liver S9, Rapid Commun. Mass Spectrom. 1996, 10, 1019-1026). Plasma Stability Assay Human plasma (Blutspendedienst SRK, Basel) and CD-1 mouse plasma (mixed gender pool >50 animals, Innovative Research, Calif., USA) are both sodium citrate stabilized. The assay is performed in triplicates at 10 μM compound concentration and 37° C. Samples are taken at 0, 15, 30, 60, 120 and 240 minutes and stopped by precipitation with 3 volumes of acetonitrile/formic acid 98:2 and shaking (2 minutes, 600 rpm) followed by filtration (−20 mm Hg). The filtrate is collected. The filtrate (100 μL) is evaporated and reconstituted in the suitable solvent (cf. Table 33) to be analyzed by HPLC/MS/MS. The resulting peak area counts are expressed in percent of the 0 value and used to determine the endpoint stability in % and the half life T in minutes. In order to monitor assay integrity the degradation of propantheline is assayed with every experimental set.

Data set [2] is described as follows: Plasma stability assay, CD-1 mouse plasma. The note with it: for Plasma Stability 240 min mouse/(rat) [% remain.]: CD-1 mouse plasma, 10 μM, 37° C.; for half-life at 10 μM: both sexes, CD-1, mouse, plasma. The protocol:
as §1

Data set [3] can be described thus: Metabolic stability assay, human liver microsomes. As to conditions: human microsomes, 10 μM, 37° C.; for half-life at 10 μM: both sexes, liver microsomes, 1 mg/ml protein, read-out: Metabolic Stability T ½ [min] hum. The protocol: (§2) 5. Plasma and Metabolic Stability Assays
(§3) Example compounds were dissolved in DMSO/H2O 90:10 to a final concentration of 10 mM for plasma stability determination and metabolic stability determination.
(§4) The assays were conducted according to literature precedents (F. P. Guengerich, Analysis and Characterization of Enzymes; in: Principles and Methods of Toxicology, A. W. Hayes (Ed.) Raven Press: New York, 1989, 777-813; R. Singh et al., In vitro metabolism of a potent HIV-protease inhibitor (141W94) using rat, monkey and human liver S9, Rapid Commun. Mass Spectrom. 1996, 10, 1019-1026).
(§5) Metabolic Stability Assay
(§6) Microsomes from a human 50 donor mixed gender pool and 1:1 mixtures of microsomes from CD-1 mouse single-gender pools are purchased from Celsis (Belgium). The enzymatic reaction is performed in a buffer containing an NADPH regeneration system and microsomes with the following end concentrations: 100 mM potassium phosphate buffer (all from Sigma), 1 mg/mL glucose-6-phosphate, 1 mg/mL β-nicotinamide adenine dinucleotide phosphate (NADP), 0.65 mg/mL magnesium chloride, 0.8 units/mL of glucose-6-phosphate dehydrogenase (prediluted with 5 mM citrate buffer), 10 μM compound and 1 mg/ml microsomal protein. Compounds are incubated at 37° C. in duplicates and samples are taken after 0, 5, 10, 20 and 60 minutes. After acetonitrile precipitation (3 volumes), shaking (2 minutes, 600 rpm) followed by centrifugation (10 minutes, 3200 g), the supernatant is dried reconstituted in the suitable solvent (cf. Table 33) and analyzed by HPLC/MS/MS. Metabolic turnover is expressed in % of the initial 0 minutes value and half life T½ (min) is calculated. Verapamil for human and propranolol for mouse are used as reference and are assayed with every experimental set.

Data set [4] can be described thus: Metabolic stability assay, CD-1 mouse microsomes. The note with it: CD-1 mouse microsomes, 10 μM, 37° C.; for half-life at 10 μM: both sexes, 1 mg/ml protein, read-out: Metabolic Stability T ½ [min] mouse/(rat). The protocol: as §2, §3, §4, §5, §6

Regarding `CC(C)CNC(=O)[C@@H]1CCC(=O)N[C@@H](C)COc2cccc(c2)-c2cccc(c2)C(=O)N1C` [Ex. 80, (9S,14S)-N-isobutyl-9,15-dimethyl-11,16-dioxo-7-oxa-10,15-diazatricyclo [15.3.1.1^2,6]docosa-1(21),2(22),3,5,17,19-hexaene-14-carboxamide], in data set [1], the “Plasma Stability 240 min hum [% remain.]” value was found to be 90 % remain and the half-life at 10 μM was above 4 h. Moreover, in data set [2], the “Plasma Stability 240 min mouse/(rat) [% remain.]” value worked out at 84 % remain and the half-life at 10 μM was above 4 h. Further, in data set [3], the half-life at 10 μM was 19 min and the “Metabolic Stability 60 min hum [% remain.]” value amounted to 6 % remain. Also, in data set [4], the “Metabolic Stability 60 min mouse/(rat) [% remain.]” value stood at 19 % remain and the half-life at 10 μM is 24 min.
On to `C[C@H]1COc2cccc(c2)-c2cccc(c2)C(=O)N(C)[C@H](C(=O)N2CCOCC2)CCC(=O)N1` [Ex. 87, (9S,14S)-9,15-dimethyl-14-(morpholinocarbonyl)-7-oxa-10,15-diazatricyclo [15.3.1.1^2,6]docosa-1(21),2(22),3,5,17,19-hexaene-11,16-dione], for which, in data set [1], the “Plasma Stability 240 min hum [% remain.]” value stood at 100 % remain and the half-life at 10 μM is above 4 h. Also, in data set [2], the “Plasma Stability 240 min mouse/(rat) [% remain.]” value is on record as 90 % remain and the half-life at 10 μM was above 4 h. Moreover, in data set [3], the half-life at 10 μM was determined as 27 min and the “Metabolic Stability 60 min hum [% remain.]” value amounted to 17 % remain. In data set [4], the “Metabolic Stability 60 min mouse/(rat) [% remain.]” value amounted to 63 % remain and the half-life at 10 μM amounted to 60 min.
In the case of `C[C@H]1COc2cccc(c2)-c2cccc(c2)C(=O)N(C)[C@H](C(=O)O)CCC(=O)N1` [Ex. 69, (9S,14S)-9,15-dimethyl-11,16-dioxo-7-oxa-10,15-diazatricyclo[15.3.1.1^2,6]docosa-1(21),2(22),3,5,17,19-hexaene-14-carboxylic acid], in data set [1], the “Plasma Stability 240 min hum [% remain.]” value turned out to be 91 % remain and the half-life at 10 μM was above 4 h. Moreover, in data set [2], the “Plasma Stability 240 min mouse/(rat) [% remain.]” value is recorded as 45 % remain and the half-life at 10 μM stood at 3.33 h. In data set [3], the half-life at 10 μM was above 60 min and the “Metabolic Stability 60 min hum [% remain.]” value amounted to 100 % remain. Also, in data set [4], the “Metabolic Stability 60 min mouse/(rat) [% remain.]” value was 100 % remain and the half-life at 10 μM was above 60 min.
For `C[C@H](NC(=O)[C@@H]1CCC(=O)N[C@@H](C)COc2cccc(c2)-c2cccc(c2)C(=O)N1C)c1ccccc1` [Ex. 76, (9S,14S)-9,15-dimethyl-11,16-dioxo-N-[(1S)-1-phenylethyl]-7-oxa-10,15-diazatricyclo[15.3.1.1^2,6]docosa-1(21),2(22),3,5,17,19-hexaene-14-carboxamide], in data set [1], the “Plasma Stability 240 min hum [% remain.]” value is listed as 88 % remain and the half-life at 10 μM was above 4 h. Also, in data set [3], the half-life at 10 μM was 16 min and the “Metabolic Stability 60 min hum [% remain.]” value worked out at 4 % remain. Moreover, in data set [4], the “Metabolic Stability 60 min mouse/(rat) [% remain.]” value was determined as 9 % remain and the half-life at 10 μM is 15 min.
Turning to `COc1ccc2c(c1)-c1cccc(c1)C(=O)N(C)[C@H](C(=O)NCC(F)(F)F)CCC(=O)N[C@H](C)CO2` [Ex. 53, (10R,15S)-4-methoxy-10,16-dimethyl-12,17-dioxo-N-(2,2,2-trifluoroethyl)-8-oxa-11,16-diazatricyclo[16.3.1.0^2,7]docosa-1(22),2,4,6,18,20-hexaene-15-carboxamide], in data set [2], the “Plasma Stability 240 min mouse/(rat) [% remain.]” value is recorded as 86 % remain and the half-life at 10 μM was above 4 h. In data set [3], the half-life at 10 μM was above 60 min and the “Metabolic Stability 60 min hum [% remain.]” value is recorded as 100 % remain. Further, in data set [4], the “Metabolic Stability 60 min mouse/(rat) [% remain.]” value is listed as 92 % remain and the half-life at 10 μM is above 60 min.
Turning to `COc1ccc2c(c1)-c1cccc(c1)C(=O)N(C)[C@H](C(=O)NCc1cccc3ccccc13)CCC(=O)N[C@H](C)CO2` [Ex. 60, (10R,15S)-4-methoxy-10,16-dimethyl-N-(1-naphthylmethyl)-12,17-dioxo-8-oxa-11,16-diazatricyclo[16.3.1.0^2,7]docosa-1(22),2,4,6,18,20-hexaene-15-carboxamide], in data set [1], the “Plasma Stability 240 min hum [% remain.]” value is listed as 97 % remain and the half-life at 10 μM is above 4 h. Also, in data set [3], the half-life at 10 μM amounted to 8 min and the “Metabolic Stability 60 min hum [% remain.]” value was found to be 0 % remain. Also, in data set [4], the “Metabolic Stability 60 min mouse/(rat) [% remain.]” value turned out to be 19 % remain and the half-life at 10 μM came to 25 min.
Turning to `C[C@H]1COc2cccc(c2)-c2cccc(c2)C(=O)N(C)[C@H](C(=O)NCc2cn(C)cn2)CCC(=O)N1` [Ex. 88, (9S,14S)-9,15-dimethyl-N-[(1-methyl-1H-imidazol-4-yl)methyl]-11,16-dioxo-7-oxa-10,15-diazatricyclo[15.3.1.1^2,6]docosa-1(21),2(22),3,5,17,19-hexaene-14-carboxamide], in data set [2], the “Plasma Stability 240 min mouse/(rat) [% remain.]” value was 81 % remain and the half-life at 10 μM is above 4 h. Also, in data set [3], the half-life at 10 μM was 56 min and the “Metabolic Stability 60 min hum [% remain.]” value is 49 % remain. Further, in data set [4], the “Metabolic Stability 60 min mouse/(rat) [% remain.]” value worked out at 62 % remain and the half-life at 10 μM is above 60 min.
Consider `C[C@H]1COc2cccc(c2)-c2cccc(c2)C(=O)N(C)[C@H](C(=O)N2CCC2)CCC(=O)N1` [Ex. 86, (9S,14S)-14-(1-azetanylcarbonyl)-9,15-dimethyl-7-oxa-10,15-diazatricyclo [15.3.1.1^2,6]docosa-1(21),2(22),3,5,17,19-hexaene-11,16-dione], for which, in data set [2], the “Plasma Stability 240 min mouse/(rat) [% remain.]” value is recorded as 60 % remain and the half-life at 10 μM was above 4 h. Further, in data set [4], the “Metabolic Stability 60 min mouse/(rat) [% remain.]” value was found to be 71 % remain and the half-life at 10 μM is above 60 min.
On to `COc1ccc2c(c1)-c1cccc(c1)C(=O)N(C)[C@H](C(=O)NCCO)CCC(=O)N[C@H](C)CO2` [Ex. 55, (10R,15S)-N-(2-hydroxyethyl)-4-methoxy-10,16-dimethyl-12,17-dioxo-8-oxa-11,16-diazatricyclo[16.3.1.0^2,7]docosa-1(22),2,4,6,18,20-hexaene-15-carboxamide], for which, in data set [2], the “Plasma Stability 240 min mouse/(rat) [% remain.]” value is 80 % remain and the half-life at 10 μM was above 4 h. For the same molecule, in data set [3], the half-life at 10 μM was above 60 min and the “Metabolic Stability 60 min hum [% remain.]” value amounted to 97 % remain. In addition, in data set [4], the “Metabolic Stability 60 min mouse/(rat) [% remain.]” value is on record as 98 % remain and the half-life at 10 μM was above 60 min.
For the molecule `C[C@H]1COc2cccc(c2)-c2cccc(c2)C(=O)N(C)[C@H](C(=O)NCCc2ccccc2)CCC(=O)N1` [Ex. 73, (9S,14S)-9,15-dimethyl-11,16-dioxo-N-phenethyl-7-oxa-10,15-diazatricyclo [15.3.1.1^2,6]docosa-1(21),2(22),3,5,17,19-hexaene-14-carboxamide], in data set [1], the “Plasma Stability 240 min hum [% remain.]” value was 89 % remain and the half-life at 10 μM was above 4 h. For the same molecule, in data set [3], the half-life at 10 μM was 2 min and the “Metabolic Stability 60 min hum [% remain.]” value was determined as 0 % remain. In data set [4], the “Metabolic Stability 60 min mouse/(rat) [% remain.]” value was 0 % remain and the half-life at 10 μM was 1 min.
`COc1ccc2c(c1)-c1cccc(c1)C(=O)N(C)[C@H](C(=O)N[C@@H](C)c1ccccc1)CCC(=O)N[C@H](C)CO2` [Ex. 58, (10R,15S)-4-methoxy-10,16-dimethyl-12,17-dioxo-N-[(1S)-1-phenylethyl]-8-oxa-11,16-diazatricyclo[16.3.1.0^2,7]docosa-1(22),2,4,6,18,20-hexaene-15-carboxamide]: in data set [1], the “Plasma Stability 240 min hum [% remain.]” value is recorded as 95 % remain and the half-life at 10 μM is above 4 h. Further, in data set [3], the half-life at 10 μM is above 60 min and the “Metabolic Stability 60 min hum [% remain.]” value worked out at 87 % remain. Moreover, in data set [4], the “Metabolic Stability 60 min mouse/(rat) [% remain.]” value turned out to be 70 % remain and the half-life at 10 μM is above 60 min.
